Reference: patent EP4603105A1, “PHARMACEUTICAL COMPOSITION CONTAINING CYCLIC COMPOUND HAVING SELECTIVE KRAS INHIBITORY EFFECT AGAINST HRAS AND NRAS” (CHUGAI SEIYAKU KABUSHIKI KAISHA, priority 2022, dated 2024)

How the values were obtained:
HRAS wild-type protein = HRAS wild-type protein (Homo sapiens, UniProt P01112); assay: Binding to HRAS by surface plasmon resonance (SPR), KD and KD ratio to KRAS
Outline: (§1)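 Compound binding is evaluated by SPR single-cycle kinetics, with concentrations added intermittently from low to high for 75 s each. Target surfaces carry GDP-loaded biotinylated Avi-RAS at about 100–300 RU, regenerated after each cycle; temperature 30°C. A 1:1 binding model gives KD.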

[1] = target: GDP-bound NRAS wild-type protein (Homo sapiens, UniProt P01111); assay: Binding to NRAS by surface plasmon resonance (SPR), KD and KD ratio to KRAS
Chain of GDP-bound NRAS wild-type protein (P01111 whole entry): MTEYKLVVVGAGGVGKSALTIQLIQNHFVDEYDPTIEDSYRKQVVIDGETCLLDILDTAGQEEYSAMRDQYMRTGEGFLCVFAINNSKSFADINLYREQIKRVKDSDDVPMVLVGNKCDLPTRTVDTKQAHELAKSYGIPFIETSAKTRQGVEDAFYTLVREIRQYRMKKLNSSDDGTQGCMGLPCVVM
Outline: as §1

[2] = test system: human lung cancer strain NCI-H441; type: cell-based
Outline: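 Proliferation was scored by […] measured after the reagent was added to cultures kept at 37°C in 5% carbon dioxide.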

[3] = ratio of the KD value with respect to HRAS wild-type protein to the KD value with respect to KRAS
[4] = ratio of the KD value with respect to GDP-bound NRAS wild-type protein to the KD value with respect to KRAS
[5] = ratio of KD for HRAS wild-type protein to KD for KRAS
[6] = ratio of KD for GDP-bound NRAS wild-type protein to KD for KRAS

Chain of HRAS wild-type protein (P01112 whole entry): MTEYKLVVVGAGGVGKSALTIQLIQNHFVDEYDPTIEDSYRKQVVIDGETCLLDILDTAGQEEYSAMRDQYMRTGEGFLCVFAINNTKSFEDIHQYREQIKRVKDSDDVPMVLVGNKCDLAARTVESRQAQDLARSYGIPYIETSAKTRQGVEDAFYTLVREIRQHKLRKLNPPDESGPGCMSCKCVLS

For `CCO[C@@H]1C[C@H]2C(=O)NC3(CC(C)(C)C3)C(=O)N(C)[C@@H](C(CC)CC)C(=O)N(C)[C@H](C(=O)N3CCCC3)CC(=O)N(C)[C@@H](COC)C(=O)N[C@@H]([C@@H](C)CC)C(=O)N(C)CC(=O)N(C)[C@H]3C/C=C\CCN(C3=O)[C@@H](Cc3ccc(C(F)(F)F)cc3)C(=O)N(C)CC(=O)N[C@@H](CCc3ccc(C(F)(F)F)c(Cl)c3)C(=O)N2C1` [PP2128], the “HRAS /KRAS” value (HRAS wild-type protein; [3]) was “A (a compound having 10 or more and less than 20 is denoted as A)”, the “NRAS /KRAS” value [1, 4] was “AA (a compound having 20 or more is denoted as AA)” and the IC50 [2] was 14.8 nM.
`CCC[C@H]1C(=O)N[C@@H](C2CCOCC2)C(=O)N(C)CC(=O)N(C)[C@H]2C/C=C\CCN(C2=O)[C@@H](Cc2ccc(C(F)(F)F)cc2)C(=O)N(C)CC(=O)N[C@@H](CCc2ccc(C(F)(F)F)c(Cl)c2)C(=O)N2C[C@H](OCC)C[C@H]2C(=O)NC2(CC(C)(C)C2)C(=O)N(C)[C@@H](C2CCCC2)C(=O)N(C)[C@H](C(=O)N(C)C)CC(=O)N1C` [PP3000] was tested, and the “HRAS /KRAS” value (HRAS wild-type protein; [5]) was “A (a compound having 10 or more and less than 20 is denoted as A)”, the “NRAS /KRAS” value [1, 6] was “AA (a compound having 20 or more is denoted as AA)” and the IC50 [2] was 63 nM.
`CCO[C@@H]1C[C@H]2C(=O)NC3(CCC3)C(=O)N(C)[C@@H](C3CCCC3)C(=O)N(C)[C@H](C(=O)N3CCOCC3)CC(=O)N(C)[C@@H](CC(C)C)C(=O)N[C@@H]([C@@H](C)CC)C(=O)N(C)CC(=O)N(C)[C@H]3CCCCCN(C3=O)[C@@H](Cc3ccc(F)cc3OC)C(=O)N(C)CC(=O)N[C@@H](CCc3cc(F)c(C(F)(F)F)c(F)c3)C(=O)N2C1` [PP0924] was tested, and the “HRAS /KRAS” value (HRAS wild-type protein; [5]) was “B (a compound having 3 or more and less than 10 is denoted as B)”, the “NRAS /KRAS” value [1, 6] was “B (a compound having 3 or more and less than 10 is denoted as B)” and the IC50 [2] was 92 nM.
In the case of `CCO[C@@H]1C[C@H]2C(=O)NC3(CC(C)(C)C3)C(=O)N(C)[C@@H](C3CCCC3)C(=O)N(C)[C@H](CC)CC(=O)N(C)[C@@H](CC3CC3)C(=O)N[C@@H]([C@@H](C)CC)C(=O)N(C)CC(=O)N(C)[C@H]3C/C=C\CCN(C3=O)[C@@H](Cc3ccc(C(F)(F)F)cc3)C(=O)N(C)CC(=O)N[C@@H](CCc3cc(F)c(C(F)(F)F)c(F)c3)C(=O)N2C1` [PP1629], the “HRAS /KRAS” value (HRAS wild-type protein; ratio of KD value for HRAS wild-type protein to KD value for KRAS (SPR)) is reported as “B (a compound having 3 or more and less than 10 is denoted as B)”, the “NRAS /KRAS” value ([1]; ratio of KD value for GDP-bound NRAS wild-type protein to KD value for KRAS (SPR)) is reported as “B (a compound having 3 or more and less than 10 is denoted as B)” and the IC50 [2] is reported as 20.7 nM.
With `CCO[C@@H]1C[C@H]2C(=O)N(C)C3(CCC3)C(=O)N(C)[C@@H](C(CC)CC)C(=O)N(C)[C@H](C(=O)N(C)C)CC(=O)N(C)[C@@H](COC)C(=O)N[C@@H]([C@@H](C)CC)C(=O)N(C)CC(=O)N(C)[C@H]3C/C=C\CCN(C3=O)[C@@H](CC3CCCCC3)C(=O)N(C)CC(=O)N[C@@H](CCc3ccc(C(F)(F)F)c(OC)c3)C(=O)N2C1` [PP2335] the “HRAS /KRAS” value (HRAS wild-type protein; [3]) was “A (a compound having 10 or more and less than 20 is denoted as A)”, the “NRAS /KRAS” value [1, 4] was “A (a compound having 10 or more and less than 20 is denoted as A)” and the IC50 [2] was 64.2 nM.
With `CCO[C@@H]1C[C@H]2C(=O)NC3(CCCC3)C(=O)N(C)[C@@H](C3CCCC3)C(=O)N(C)[C@H](C(=O)N3CCOCC3)CC(=O)N(C)[C@@H](CC)C(=O)N[C@@H]([C@@H](C)CC)C(=O)N(C)CC(=O)N(C)[C@H]3CC(C)=CCN(C3=O)[C@@H](Cc3ccc(C(F)(F)F)cc3)C(=O)N(C)CC(=O)N[C@@H](CCc3cc(F)c(C(F)(F)F)c(F)c3)C(=O)N2C1` [PP1043] the “HRAS /KRAS” value (HRAS wild-type protein; [5]) was “C (A compound having a KD ratio of 0.1 or more and less than 3 is denoted as C)”, the “NRAS /KRAS” value [1, 6] was “C (A compound having a KD ratio of 0.1 or more and less than 3 is denoted as C)” and the IC50 [2] was 387 nM.
